Source: patent US12187672B2, “1,2-diacylglycerol compound, preparation method therefor, and immunomodulator containing same as active ingredient” (ENZYCHEM LIFESCIENCES CORPORATION, priority 2018, dated 2025)

Legend:
[1] = tested on: IL-6; test: LPS-induced IL-6 secretion reduction in RAW264.7 cells (ELISA); assay type: cell-based, mouse; details: sample 100 μg/ml 1 h, then LPS 1 μg/ml 24 h, Table 2
Procedure: In DMEM (Dulbecco Modified Eagle Medium, Hyclone, Thermo Scientific) medium to which 10% Fetal Bovine Serum was added, RAW264.7 cells, a mouse macrophage family, were suspended at a concentration of 1×10^5 cells/ml, and culture was conducted in a 5% CO2 humidified incubator at 37° C. The cultured RAW264.7 cells were inoculated into a 48 well plate by 5×10^4 cells/ml and stabilized for 15 hours. Then, the culture solution was treated with a glycerol derivative compounds of the type shown in Table 2 and 3 below for 1 hour and then was treated with 1 μg/ml of Lipopolysaccaride (LPS) of a cell stimulator, and subsequent further incubation was conducted for 24 hours. Thereafter 0.5 ml of the culture supernatant was collected for each well and centrifuged (at 3000 rpm, 5 minutes) to recover the supernatant. The IL-6 level in the recovered supernatant was measured according to the manual provided by the Mouse IL-6 ELISA set (BD Biosciences). The day before ELISA was carried out, the IL-6 capture antibody was diluted in phosphate buffered saline, coated on a microwell, and then stored at 4° C. overnight. Each well was washed three times with a buffer solution and then blocked with 2% Bovine Serum Albumin (BSA) for 1 hour at room temperature. After washing with buffer solution three times, […] of sample was dispensed into each well and left at room temperature for 2 hours. Detection antibody which was washed 3 times with washing buffer solution and diluted was dispensed into each well and allowed to react at room temperature for 1 hour and left at room temperature for 1 hour. Thereafter, the secondary HRP conjugated antibody was reacted at room temperature for 30 minutes, washed three times with a buffer solution, and treated with 50 μl of stop solution for each well, and then the optical density was measured at 450 nm with an ELISA microplate leader. The results of the IL-6 expression reduction rate (IL-6 concentration) are shown in Table 2, Table 3, FIG. 1 and FIG. 2 below.

[2] = tested on: STAT3; test: IL-6-induced STAT3 activity, SEAP expression in HEK-Blue IL-6 cells; assay type: cell-based; details: HEK-Blue IL-6 cells; for STAT3 activity_SEAP expression(%) (average ± deviation): sample 100 μg/ml 1 h, then IL-6 5 ng/ml 24 h, negative control = 100; for decrease of STAT3 activity compared to the IL-6 cytokine-treated group: 100 μg/ml
Procedure: HEK-Blue™ IL-6 cells were used to confirm STAT3 activity by STAT3-induced SEAP (secreted embryonic alkaline phosphatase) expression. In DMEM (Hyclone, Thermo Scientific) medium to which 10% Fetal Bovine Serum was added, HEK-Blue™ IL-6 cells were cultured at a concentration of 1×10^5 cells/ml, and maintained in a 5% CO2 humidified incubator at 37° C. The cultured HEK-Blue™ IL-6 cells were inoculated by 1×10^5 cells/ml. Then, the culture solution was treated with a glycerol derivative compounds of the type shown in Table 4 below for 1 hour and then IL-6 (5 ng/ml) was further incubated for 24 hours for STAT3 activity. Thereafter, the culture supernatant was collected for each well and centrifuged (at 3000 rpm, 5 minutes) to recover the supernatant. The SEAP expression level in the recovered supernatant was mixed with Quanti blue reagent and the supernatant at a ratio of 1:10 and left at 37° C. for about 30 minutes. Then, the SEAP concentration was confirmed at 650 nm wavelength using a spectrophotometer, and the results (STAT3 activity inhibitory ability) thereof are shown in Table 4 and FIG. 3 below.

[3] = tested on: CXCL8 (IL-8); test: CXCL8 (IL-8) expression reduction in Gemcitabine-treated THP-1 cells (ELISA); assay type: cell-based, human; details: THP-1 cells; for CXCL8 [IL-8] concentration (average ± deviation): sample 100 μg/ml 1 h, then Gemcitabine 2 μg/ml 24 h
Procedure: In RPMI (Hyclone, Thermo Scientific) medium to which 10% Fetal Bovine Serum was added, THP-1 cells, a human macrophage family, were suspended at a concentration of 1×10^5 cells/ml, and culture was conducted in a 5% CO2 humidified incubator at 37° C. The cultured THP-1 cells were inoculated into a 12 well plate by 1×10^6 cells/ml and stabilized for 30 minutes. Then, the culture solution was treated with a glycerol derivative compounds of the type shown in Table 6 below for 1 hour and then was treated with Gemcitabine (2 μg/ml) of a cell stimulator, and subsequent further incubation was conducted for 24 hours. Thereafter 1.5 ml of the culture supernatant was collected for each well and centrifuged (at 3000 rpm, 5 minutes) to recover the supernatant. The CXCL8 (IL-8) level in the recovered supernatant was measured according to the manual provided by the human IL-8 ELISA set (BD Biosciences). The day before ELISA was carried out, the IL-8 capture antibody was diluted in phosphate buffered saline, coated on a microwell, and then stored at 4° C. overnight. Each well was washed three times with a buffer solution and then blocked with 2% Bovine Serum Albumin (BSA) for 1 hour at room temperature. After washing with washing buffer solution three times, 100 μl of sample was dispensed into each well and left at room temperature for 2 hours. Detection antibody which was washed 3 times with washing buffer and diluted was dispensed into each well and allowed to react at room temperature for 1 hour and left at room temperature for 1 hour. Thereafter, the secondary HRP conjugated antibody was reacted at room temperature for 30 minutes, washed three times with a washing buffer, and treated with 50 μl of stop solution for each well, and then the optical density was measured at 450 nm with an ELISA microplate leader.

[4] = tested on: HL-60 cells; test: Migration of HL-60 cell line toward THP-1 culture supernatant (transmigration assay); assay type: cell-based, human; details: supernatant of THP-1 cells treated with sample 100 μg/ml 1 h, then Gemcitabine 2 μg/ml 24 h
Procedure: In RPMI (Hyclone, Thermo Scientific) medium to which 10% Fetal Bovine Serum was added, THP-1 cells, a human macrophage family, were subcultured at a concentration of 1×10^5 cells/ml, and culture was conducted in a 5% CO2 humidified incubator at 37° C. In order to prepare the THP-1 cell culture solution to be treated in the lower well during the transmigration assay, first, the cultured THP-1 cells were inoculated into a 12 well plate by 1×10^6 cells/ml and stabilized for 30 minutes. Then, the culture solution was treated with a glycerol derivative compounds of the type shown in Table 7 below for 1 hour and then was treated with Gemcitabine (2 μg/ml) of a cell stimulator, and subsequent further incubation was conducted for 24 hours. Thereafter 1.5 ml of the culture supernatant was collected for each well and centrifuged (at 3000 rpm, 5 minutes) to recover the supernatant. The CXCL8 (IL-8) level in the recovered supernatant was measured according to the manual provided by Cultrex 96 well Laminin Cell Invasion assay. The day before Transmigration assay was carried out, a 1× Lamin I solution was treated in the upper Invasion Chamber and coated. Thereafter, in RPMI (Hyclone, Thermo Scientific) medium to which 10% Fetal Bovine Serum was added, the cultured HL-60 cells were despensed of 5×10^4 cells/chamber, and 150 μl of the THP-1 culture supernatant prepared in advance was added to the lower chamber. Thereafter the upper chamber was removed, and the cells were attached to the bottom of the lower chamber by a centrifuge, and then the supernatant was removed. Cell dissociation/Calcein-AM solution was added and reacted for 1 hour. Then, the value obtained using a fluorescence spectroscopy was calculated by converting the number of cells.

[5] = tested on: IL-4; test: PKC activator-induced IL-4 secretion reduction in EL-4 cells (ELISA); assay type: cell-based, mouse; details: sample 100 μg/ml 2 h, then PKC activator 18 h, Table 11
Procedure: In DMEM (Dulbecco Modified Eagle Medium, Hyclone, Thermo Scientific) medium to which 10% Fetal Bovine Serum was added, EL-4 cells, a mouse lymphoma family, were subcultured at a concentration of 1×10^5 cells/ml, and culture was conducted in a 5% CO2 humidified incubator at 37° C. The cultured EL-4 cells were inoculated into a 48 well plate by 5×10^4 cells/ml and stabilized for 30 hours. Then, the culture solution was treated with a glycerol derivative compounds of the type shown in Table 11 and 12 below for 2 hours. Thereafter, it were treated with 0.5 μg/ml of PKC activator (p10, some kind of PMA) of a cell stimulator, and subsequent further incubation were conducted for 18 hours. Thereafter 0.5 ml of the culture supernatant was collected for each well and centrifuged (at 3000 rpm, 5 minutes) to recover the supernatant. The IL-4 level in the recovered supernatant was measured according to the manual provided by the Mouse IL-4 ELISA set (BD Biosciences). The day before ELISA was carried out, the IL-4 capture antibody was diluted in phosphate buffered saline, coated on a microwell, and then stored at 4° C. overnight. Each well was washed three times with a buffer solution and then blocked with 2% Bovine Serum Albumin (BSA) for 1 hour at room temperature. After washing with buffer solution three times, 100 μl of sample was dispensed into each well and left at room temperature for 2 hours. Detection antibody which was washed 3 times with washing buffer solution and diluted was dispensed into each well and allowed to react at room temperature for 1 hour and left at room temperature for 1 hour. Thereafter, the secondary HRP conjugated antibody was reacted at room temperature for 30 minutes, washed three times with buffer solution, and treated with 50 μl of stop solution for each well, and then the optical density was measured at 450 nm with an ELISA microplate leader. The results of the measured expression reduction rate ([…]) were shown in Table 11, Table 12, FIG. 11 and FIG. 12 below.

[6] = tested on: STAT6; test: IL-4-induced STAT6 activity, pGL4-STAT6 luciferase reporter in A549 cells; assay type: cell-based; details: sample 100 μg/ml 1 h, then IL-4 (2 ng/ml) 20 h, Table 9
Procedure: In DMEM (Dulbecco Modified Eagle Medium, Hyclone, Thermo Scientific) medium to which 10% Fetal Bovine Serum was added, A549 cells were subcultured at a concentration of 1×10^5 cells/ml, and culture was conducted in a 5% CO2 humidified incubator at 37° C. The cultured A549 cells were inoculated into a 48 well plate by 1×10^5 cells/ml and stabilized for 18 hours. Thereafter, pGL4-STAT6 reporter vector containing a STAT6 binding promoter portion was mixed with Attractene to induce complex formation at room temperature for 15 minutes. This complex was treated with the cells and then further incubated for 24 hours. Thereafter, the culture solution was treated with a glycerol derivative compounds of the type shown in Table 9 and 10 below for 1 hour, and then IL-4 (2 ng/ml or 10 ng/ml) was further incubated for 20 hours for STAT6 activity. Thereafter, the culture supernatant was removed for each well, and the remaining cells were lysed with a cell lysis buffer, and then cell lysate was recovered. 90 μl of luciferase reagent was mixed with 10 μl of the recovered cell lysate, and the degree of fluorescence was confirmed using a luminometer. The results are shown in Table 9, Table 10, FIG. 9 and FIG. 10 below.

| Compound | IL-6 concentration (average ± deviation) [1] | STAT3 activity_SEAP expression(%) (average ± deviation) [2] | CXCL8 [IL-8] concentration (average ± deviation) [3] | Number of HL-60 cells migrated through Transwell [4] | IL-4 concentration (average ± deviation) [5] | decrease of STAT3 activity compared to the IL-6 cytokine-treated group [2] | reduction of CXCL8 (IL-8) expression/secretion ([3]; Gemcitabine-treated, 100 μg/ml) | STAT6 activity_Luciferase activity (average ± deviation) [6] |
| --- | --- | --- | --- | --- | --- | --- | --- | --- |
| CCCCC/C=C\C/C=C\CCCCCCCC(=O)OC(COC(=O)CCCCCCCCCCCCCCC)COC(C)OC (centres unmarked) [EC_A70-1] | 0.144 ± 0.028 µg/mL | 259.5 ± 28.4% | 200.1 ± 1.0 pg/µL | 4047.1 Cell Number | 865.6 ± 127.9 pg/µL | – | – | – |
| CCCCC/C=C\C/C=C\CCCCCCCC(=O)OC(COC(=O)CCCC)COC(=O)CCCCCCCCCCCCCCC (centres unmarked) [EC_A18] | 0.147 ± 0.003 µg/mL | 166.2 ± 29.6% | 84.0 ± 1.8 pg/µL | 9891.6 Cell Number | – | about 25% | about 20% | 1189.2 ± 174.7 |
| CCCCC/C=C\C/C=C\CCCCCCCC(=O)OC(COC)COC(=O)CCCCCCCCCCCCCCC (centres unmarked) [EC_A13] | 0.266 ± 0.024 µg/mL | 167.2 ± 8.4% | 96.6 ± 0.2 pg/µL | 8679.7 Cell Number | – | about 25% | – | 1150.2 ± 44.9 |
| CCCCC/C=C\C/C=C\CCCCCCCC(=O)OC(COC(=O)CCCCCCCCCCCCCCC)COC(=O)C(C)C (centres unmarked) [EC_A19] | 0.204 ± 0.014 µg/mL | 162.9 ± 33.2% | 277.9 ± 3.1 pg/µL | 14882.8 Cell Number | – | – | – | 898.7 ± 115.9 |
